Data as given in patent US7053178B2, “Synthetic peptides and kits for diagnosis of anti-phospholipid syndrome” (Yeda Research Development Co., LTD, priority 1998, dated 2006).
Where no end group is shown, it is not given here.

Legend:
[1] = system: sera of mice immunized with β2GPI; test: ELISA binding of sera of β2GPI-immunized mice to peptides; design: species or system BALB/c mice; conditions: biotinylated peptide monomers on streptavidin plates, anti-mouse IgG
Procedure: Sera of immunized mice were screened for the presence of mouse antibodies to peptide A, B and C, by ELISA, with streptavidin-coated plates followed by incubation with biotinylated peptide A, B, and C. Blocked plates (3% gelatin) were exposed to different dilutions of the sera. The binding was probed by anti-mouse IgG alkaline phosphatase.
BALB/c mice were immunized (day 0) in the hindfootpads with 10 μg β2GPI in Complete Freund's Adjuvant (CFA), Three weeks after, the mice received a booster injection of β2GPI in PBS. Sera of the mice (anti-β2GPI) were used to screen peptides for the presence of B cell epitopes, as follows: 96-well ELISA plates were coated with streptavidin overnight at 4° C., followed by incubation with biotinylated peptide monomers A, B, C, or D, β2GPI or BSA in PBS (100 μM) for 2 hours at room temperature. The ELISA plates were blocked with 3% gelatin, and the mouse sera were added thereto at different dilutions. Binding was probed with goat anti-mouse IgG alkaline phosphatase.

[2] = system: affinity purified anti-β2GPI Abs from APS patients; test: Fractionation of affinity purified anti-β2GPI Abs on peptide columns; type: binding, human
[3] = system: affinity purified anti-β2GPI IgM and IgG from APS patients; test: Competition ELISA: specificity of binding of patient anti-β2GPI IgM and IgG to peptides; design: species or system human; conditions: competition with specific peptide versus cocktail of the other peptides
Procedure: FIGS. 6A–6C show specificity of binding of affinity purified anti-β2GPI IgM and IgG antibodies from APS patients to the inhibitory monomer peptides A, B and C by ELISA, following preincubation of the tested affinity purified immuno-globulin with or without the peptide or the β2GPI molecule, in fluid phase. FIG. 6A: Affinity purified anti-β2GPI IgM and IgG that recognize peptide A were tested for binding to peptide A following preincubation of the purified antibodies with peptide A, cocktail of peptides B+C+D or β2GPI. Each point represents one patient. FIG. 6B: Affinity purified anti-β2GPI IgM and IgG that recognize peptide B were tested for binding to peptide B following preincubation with peptide B, cocktail of peptides A+C+D or β2GPI. Each point represents one patient. FIG. 6C: Affinity purified anti-β2GPI IgM and IgG that recognize peptide C were tested for binding to peptide C following preincubation with peptide C, cocktail of peptides A+B+D or β2GPI. Each point represents one patient.
The specificity of the recognition of the studied anti-β2GPI epitopes A, B, C by anti-β2GPI Abs from APS patients was confirmed by competition assays in which specificity of binding of anti-β2GPI IgM and IgG from patients with APS to the inhibitory peptides was examined. Anti-β2GPI IgG and IgM affinity purified from APS patients (affinity purification of the antibodies was carried out by incubation of cardiolipin lyposomes with patients' sera overnight at 4° C. with rotation following sedimentation of the complexes (30000 rpm), elution of the bound Abs by KI 1M, extraction from the lyposomes by chloroform, and separation of the total anti-β2GPI IgM, IgG Abs into the different isotypes employing either anti-human-IgM-Sepharose or anti-human-IgG-Sepharose (Pharmacia)) were preincubated with β2GPI (triangles), specific peptide monomer (circles) or a cocktail of the other peptides as monomers (squares), and tested for their binding to the specific biotinylated peptide-coated ELISA plates.

sera of SLE patients = test: ELISA binding of SLE patient sera to biotinylated peptides; design: species or system human; conditions: SLE patients (N = 72), sera 1:50
Procedure: (§1) Binding of sera from patients with primary APS or secondary to SLE to the studied peptides was performed by ELISA. 96-well ELISA plates were coated with streptavidin, blocked with gelatin, incubated with biotinylated peptides (A,B,C,D) and blocked with gelatin. Sera of patients with APS or SLE were added at dilution of 1:50 and the percent of binding was probed with anti-human IgM or IgG conjugated to alkaline phosphatase. Half plate was coated with streptavidin without addition of peptide (for non-specific binding).

sera of APS patients = test: ELISA binding of APS patient sera to biotinylated peptides; design: species or system human; conditions: APS patients (N = 43), sera 1:50
Procedure: ELISA streptavidin-coated plates were incubated with biotinylated A, B or C, control peptide D or cocktail of peptides A+B+C. Following blocking with 5% bovine sera, the patient sera were added at dilution of 1:50. The bound antibodies were detected by administration of anti-human IgG or IgM alkaline phosphatase and appropriate substrate.
as §1

anti-β2GPI ILA-1 mAb = test: Competition ELISA: inhibition of ILA-1 mAb binding to β2GPI; design: species or system human; conditions: 10 μM peptide concentration
Procedure: FIGS. 1A–1C are graphs showing inhibition of the anti-β2GPI ILA-1, ILA-3 and G-3 mAbs binding to β2GPI by competition assays using increasing concentrations of the inhibitory monomer peptides A, B and C, respectively, and of unrelated peptide D as control. The percent of inhibition was calculated as follows: % inhibition=O.D control−O.D with inhibitor/O.D control×100. Each point represents mean±SD of three different experiments.
(e) Inhibition of anti-β2GPI mAb binding to β2GPI by the inhibitory peptides. For competition ELISA tests, the anti-β2GPI mAbs (10 μg/ml) were preincubated (overnight at 4° C.) with varying concentrations of the peptides. The competition reaction was then transferred to β2GPI-coated γ-irradiated ELISA plates (Nunc), and the assay continued as described above. The percentage of inhibition was calculated as follows: % inhibition=O.D control −O.D with inhibitor/O.D control×100.
(2a) The specificity of interaction of the mAbs with the corresponding synthetic peptides A, B, C and control peptide D as monomers, was assessed by inhibition experiments as described in Materials and Methods, sections (e) and (f).

sera of normal donors = test: ELISA binding of normal donor sera to biotinylated peptides; design: species or system human; conditions: Normal donors (N = 100)
Procedure: as §1

Sequence	reaction with antibodies from mice immunized with β2GPI [1]	Fraction of anti-β2GPI Abs (in percentage) recognizing the peptide ([2]; APS patient no. 1) [percentage]	Fraction of anti-β2GPI Abs (in percentage) recognizing the peptide ([2]; APS patient no. 2) [percentage]	Fraction of anti-β2GPI Abs (in percentage) recognizing the peptide ([2]; APS patient no. 3) [percentage]	Fraction of anti-β2GPI Abs (in percentage) recognizing the peptide ([2]; APS patient no. 4) [percentage]	Fraction of anti-β2GPI Abs (in percentage) recognizing the peptide ([2]; APS patient no. 5) [percentage]	Fraction of anti-β2GPI Abs (in percentage) recognizing the peptide ([2]; APS patient no. 6) [percentage]	Fraction of anti-β2GPI Abs (in percentage) recognizing the peptide ([2]; APS patient no. 7) [percentage]	Fraction of anti-β2GPI Abs (in percentage) recognizing the peptide ([2]; APS patient no. 8) [percentage]	Fraction of anti-β2GPI Abs (in percentage) recognizing the peptide ([2]; APS patient no. 9) [percentage]	Fraction of anti-β2GPI Abs (in percentage) recognizing the peptide ([2]; APS patient no. 10) [percentage]	specificity of recognition of the peptide by anti-β2GPI IgM and IgG from APS patients [3]	Percent of sera recognizing the peptide, IgG (sera of SLE patients) [%]	Percent of sera recognizing the peptide, IgM (sera of SLE patients) [%]	Percent of sera recognizing the peptide, IgG (sera of APS patients) [%]	Percent of sera recognizing the peptide, IgM (sera of APS patients) [%]	inhibition of ILA-1 mAb binding to β2GPI (anti-β2GPI ILA-1 mAb) [%]	Percent of sera recognizing the peptide, IgG (sera of normal donors) [%]	Percent of sera recognizing the peptide, IgM (sera of normal donors) [%]	Percent of sera recognizing the peptide, IgM (sera of APS patients; listed as peptide A) [%]
CATLRVYKGG [Peptide C]	reacted specifically	0.4	3	39	22	1.8	23	5	4.2	0.5	16.4	recognized specifically	2.8	14	16.3	27.9	11	1	0	–
KDKATFGTHDG [Peptide B]	reacted specifically	37	15	0.5	43	29	14	18	33	1.3	7.9	bind specifically	11	12.5	20.9	25.6	10	0	1	–
NTLKTPRVGG [Peptide A]	reacted specifically	23	0.7	1.4	29	0.9	29	37	2.8	12	0.6	recognized specifically	5.5	11	7	20.9	97	0	2	21
